The source of these data is the supplement of paper PMC4862054.

Values joined by “and” are separate entries in the source; they are usually repeats but may differ in a detail not shown here. Equal entries are not always repeated.

One test relates to MDA-MB-468. Particulars: 72 h. The method, then:
(§1)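 Drug sensitivity and resistance testing (DSRT) of breast cancer cell lines in 384-well plates, 5 concentrations in 10-fold dilutions over a compound-specific 10,000-fold range. After 72 h, cytotoxicity was read by CellTox Green fluorescence and viability by CellTiter-Glo luminescence (multiplexed), normalised to DMSO and benzethonium chloride controls. EC50 is the inflection point of the fitted dose-response curve (bottom asymptote free, so it can be relative for partial curves) and is censored at the highest tested concentration. Rows with DSS 0 (no meaningful response) were excluded.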

The test system of a further test is Hs578T. Conditions: 72 h. The method, then:
as §1

Test [1] deals with HDQ-P1. Particulars: 72 h. The method, then: as §1
The subject of a further test is HCC1599. Conditions: 72 h. In outline:
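Seeding of breast cancer cell lines (20 µl suspension) was done into 384-well plates pre-loaded with compound at 5 concentrations, 10-fold apart, covering a compound-specific 10,000-fold range. The plates were incubated for 72 h, read for CellTox Green fluorescence (485/520 nm), and then read for CellTiter-Glo luminescence after 10 min at room temperature. Every plate was normalised to 0.1 % DMSO and a positive kill control. Curve fitting gave the EC50, censored at the top concentration.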

Test [2] concerns CAL-148. Description: normalised response (% of control), CellTiter-Glo; higher = more viable cells (100 = DMSO, 0 = benzethonium chloride kill control). Conditions: incubation time: 72 h. In outline: (§2)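 Compound was dispensed into 384-well plates at 5 concentrations in 10-fold steps spanning a 10,000-fold range specific to that compound. Breast cancer cell lines were added as 20 µl suspension and left for 72 h before CellTox Green fluorescence (485/520 nm) and then CellTiter-Glo luminescence, read after 10 min at room temperature. Each reported value is the normalised signal at one concentration, with 0.1 % DMSO set at 100 and a positive kill control at 0 on each plate.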
(In general: ATP-based viability assays read luminescence as a measure of living cells.)

In a further test the test system is MCF-10A. The test is described as above. Particulars: incubation time: 72 h. In outline:
as §2

The subject of test [3] is CAL-85-1. Description: normalised viability (% of control), CellTiter-Blue; higher = more viable cells (about 100 = DMSO control). Conditions: incubation time: 72 h. The method, then:
(§3)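 DSRT, CellTiter-Blue viability, 72 h incubation. Signal is normalised to DMSO and benzethonium chloride controls. Value is the normalised response at dose 9.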
(Alamar Blue is a resazurin reagent that responds to reducing activity.)

For test [4], the system named is MDA-MB-453. The description is as above. Particulars: incubation time: 72 h. The procedure:
as §3

Another test deals with DU-4475. The test is described as above. Particulars: incubation time: 72 h. The procedure:
as §3

The subject of test [5] is CAL-148. The test is described as above. Particulars: incubation time: 72 h. The procedure: as §3
For a further test, the system named is CAL-51. Described as above. Conditions: incubation time: 72 h. The method, then:
as §3

The test system of test [6] is HDQ-P1. Described as above. Particulars: incubation time: 72 h. The procedure:
as §3

Test [7] has as its system CAL-85-1. Particulars: 72 h. The procedure: as §1
The subject of a further test is SK-BR-3. Particulars: 72 h. In outline: (§4)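 Breast cancer cell lines in 20 µl suspension were seeded onto 384-well plates pre-loaded with compound dissolved in 5 µl medium, then incubated 72 h. For viability, 2.5 µl CellTiter-Blue was added for 2 h at 37 °C and fluorescence read at 560/590 nm. Each plate was normalised to vehicle and a positive kill control and checked by Z'-factor. EC50 comes from the fitted percent-inhibition dose-response curve, censored at the highest concentration; rows with zero drug sensitivity score were dropped.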

The subject of test [8] is MDA-MB-453. Conditions: 72 h. In outline: as §4
A further test concerns MDA-MB-231. Conditions: 72 h. The procedure: as §1
In test [9] the test system is CAL-148. Conditions: 72 h. The method, then: as §1
Another test concerns BT-474. Conditions: 72 h. The method, then: as §1
Another test deals with MFM-223. Particulars: 72 h. The method, then: as §1
A further test deals with HCC1937. Conditions: 72 h. In outline:
as §4

For the molecule `Cn1cc(C[C@@H](N)C(=O)O)c2ccccc21` [1-methyl-D-tryptophan], the “EC50, CellTox Green” value is more than 5000 nM with MDA-MB-468, more than 5000 nM with Hs578T and more than 5 µM with HDQ-P1 [1].
Regarding `CC[C@H](CC#N)OC(=O)N[C@@H](C)c1cccc(NC(=O)Nc2ccc(-c3cnco3)c(OC)c2)c1` [AVN944], the “EC50, CellTiter-Glo” value with HCC1599 was determined as 649 nM. Moreover, the “EC50, CellTox Green” value with Hs578T amounted to 191 nM.
With `Cc1c(N)nc([C@H](CC(N)=O)NC[C@H](N)C(N)=O)nc1C(=O)N[C@H](C(=O)N[C@H](C)[C@@H](O)[C@H](C)C(=O)N[C@H](C(=O)NCCc1nc(-c2nc(C(=O)NCCC[S+](C)C)cs2)cs1)[C@@H](C)O)[C@@H](OC1OC(CO)C(O)C(O)C1OC1OC(CO)C(O)C(OC(N)=O)C1O)c1cnc[nH]1` (stereo partly specified) [Bleomycin] (10000 nM), the normalised response in the test on CAL-148 [2] was determined as 63.3%; in the test on MCF-10A it was 53%. The normalised viability is 96.9% in the test on CAL-85-1 [3]; 94.2% in the test with MDA-MB-453 [4]; 98.7% in the test with DU-4475; 82.8% with CAL-148 [5]; 51.7% in the test on CAL-51; 64.7% in the test on HDQ-P1 [6].
`Cc1cc2c(F)c(Oc3ncnn4cc(OC[C@@H](C)O)c(C)c34)ccc2[nH]1` [Brivanib]: the “EC50, CellTox Green” value in the test with CAL-85-1 [7] was more than 1000 nM.
`Cc1cc2c(F)c(Oc3ncnn4cc(OC[C@@H](C)O)c(C)c34)ccc2[nH]1` [Brivanib] (1000 nM): the normalised response with CAL-148 [2] was 112%; in the test with MCF-10A, 108%. Besides, the normalised viability in the test on CAL-85-1 [3] turned out to be 86.9%; with MDA-MB-453 [4], 99.1%; in the test with DU-4475 it was 107%; in the test on CAL-148 [5] it was 86.8%; in the test with CAL-51, 101%; in the test with HDQ-P1 [6] it was 117%.
For the molecule `CCCCCOC(=O)Nc1nc(=O)n([C@@H]2O[C@H](C)[C@@H](O)[C@H]2O)cc1F` [Capecitabine], the “EC50, CellTiter-Blue viability” value with SK-BR-3 worked out at 9.2 µM; with MDA-MB-453 [8], 7.52 µM.
As to `CCCCCOC(=O)Nc1nc(=O)n([C@@H]2O[C@H](C)[C@@H](O)[C@H]2O)cc1F` [Capecitabine] (10000 nM), the figures for the normalised response with CAL-148 [2] and in the test on MCF-10A were 109% and 102%, respectively. Besides, the normalised viability with DU-4475 was 88.5% and 90.4%; in the test with CAL-148 [5], 75.5% and 97.8%; in the test with CAL-51, 88.9% and 91.6%; in the test with HDQ-P1 [6] it was 105% and 87.3%.
With `CC(C)C[C@H](NC(=O)[C@H](CCc1ccccc1)NC(=O)CN1CCOCC1)C(=O)N[C@@H](Cc1ccccc1)C(=O)N[C@@H](CC(C)C)C(=O)[C@@]1(C)CO1` [Carfilzomib] (1000 nM), the values for the normalised response in the test on CAL-148 [2] and in the test with MCF-10A were 7.77% and 0.46%, respectively. Also, the normalised viability is 2.67% with CAL-85-1 [3]; 12.3% with MDA-MB-453 [4]; 2.97% with DU-4475; 2.83% with CAL-148 [5]; 1.6% in the test with CAL-51; 0.68% with HDQ-P1 [6].
In the case of `Nc1nc(Cl)nc2c1ncn2[C@@H]1O[C@H](CO)[C@@H](O)[C@@H]1F` [Clofarabine] (10000 nM), the normalised response with CAL-148 [2] is 40.5%; in the test with MCF-10A it was 56.9%. Besides, the normalised viability with CAL-85-1 [3] amounted to 51.2%; in the test with MDA-MB-453 [4], 41.2%; in the test with DU-4475, 14%; in the test on CAL-148 [5] it was 35.5%; with CAL-51 it was 12.4%; in the test with HDQ-P1 [6], 91.7%.
As for `CCN(CC)CCOc1ccc(C(=C(Cl)c2ccccc2)c2ccccc2)cc1` [Clomifene] (10000 nM), the figures for the normalised response with CAL-148 [2] and with MCF-10A were 74.4% and 46.1%, respectively. The normalised viability was found to be 42.8% in the test with CAL-85-1 [3]; 7.39% in the test with MDA-MB-453 [4]; 48.2% in the test with DU-4475; 93.4% in the test on CAL-148 [5]; 84.7% with CAL-51; 38.8% with HDQ-P1 [6].
With `C[C@@H]1C[C@H]2[C@@H]3CCC4=CC(=O)C=C[C@]4(C)[C@@]3(F)[C@@H](O)C[C@]2(C)[C@@]1(O)C(=O)CO` [Dexamethasone], the “EC50, CellTiter-Blue viability” value with MDA-MB-453 [8] came out at 0.0157 µM.
With `C[C@@H]1C[C@H]2[C@@H]3CCC4=CC(=O)C=C[C@]4(C)[C@@]3(F)[C@@H](O)C[C@]2(C)[C@@]1(O)C(=O)CO` [Dexamethasone] (10000 nM), the results for the normalised response in the test with CAL-148 [2] and in the test on MCF-10A were 98.2% and 79.9%, respectively. In addition, the normalised viability in the test with CAL-85-1 [3] is 105%; with MDA-MB-453 [4] it was 75.3%; in the test with DU-4475 it was 104%; with CAL-148 [5] it was 109%; in the test on CAL-51, 97.9%; with HDQ-P1 [6] it was 125%.
In the case of `Cc1c(C(=O)Nc2ccc(N3C[C@@H](C)O[C@@H](C)C3)nc2)cccc1-c1ccc(OC(F)(F)F)cc1` [Erismodegib], in the test with MDA-MB-231, the “EC50, CellTox Green” value was more than 10 µM.
Take `CC(C)C(=O)Nc1ccc([N+](=O)[O-])c(C(F)(F)F)c1` [Flutamide] (10000 nM): the normalised response came to 101% in the test with CAL-148 [2] and 96.7% in the test with MCF-10A. Moreover, the normalised viability in the test on CAL-85-1 [3] came to 84.8%; in the test with MDA-MB-453 [4], 91.7%; with DU-4475 it was 87.4%; with CAL-148 [5], 106%; with CAL-51, 98.3%; in the test on HDQ-P1 [6] it was 124%.
Regarding `COc1cc2c(Oc3ccc(NC(=O)C4(C(=O)Nc5ccc(F)cc5)CC4)cc3F)ccnc2cc1OCCCN1CCOCC1` [Foretinib] (1000 nM), the normalised response in the test with CAL-148 [2] turned out to be 48.9%; in the test with MCF-10A it was 60.7%. Besides, the normalised viability is 66.8% in the test with CAL-85-1 [3]; 51.8% in the test with MDA-MB-453 [4]; 29.4% in the test with DU-4475; 25.8% in the test on CAL-148 [5]; 24.8% in the test with CAL-51; 45.4% in the test with HDQ-P1 [6].
Regarding `CC(C)NC[C@@H](C(=O)N1CCN(c2ncnc3c2[C@H](C)C[C@H]3O)CC1)c1ccc(Cl)cc1` [GDC-0068], the “EC50, CellTox Green” value is 2640 nM in the test on MDA-MB-468; 221 nM in the test on CAL-148 [9]; 5.81 µM in the test on BT-474; 1330 nM in the test with MFM-223; more than 10 µM with HDQ-P1 [1].
For the molecule `NC(=O)NO` [Hydroxyurea], in the test with HCC1937, the “EC50, CellTiter-Blue viability” value turned out to be 13.4 µM.
